Experimental findings from ChEMBL document CHEMBL4609973, “Hepatitis C - New drugs and treatment prospects” (Eur J Med Chem, 2019) are described below.

Series [1] can be described thus: Half life in human. The series is classed as ADME.
Series [2] is described as follows: Oral bioavailability in human. Format: ADME, organism-based. The following applies: in vivo.
Series [3] is described as follows: Drug excretion in human feces assessed as daclatasvir level. The series is classed as ADME, tissue-based. The following applies: faeces, read-out: Drug excretion.
A short description of series [4]: Absolute bioavailability in human. To be noted: in vivo. Format: ADME, organism-based.
Series [5] can be described thus: Drug excretion in human feces assessed as dasabuvir level. Format: ADME, tissue-based. The following applies: faeces, read-out: Drug excretion.
The nature of series [6]: Drug excretion in human feces assessed as ombitasvir level. To be noted: faeces, read-out: Drug excretion. The series is classed as ADME, tissue-based.
A short description of series [7]: Oral bioavailability in human under fed condition. The series is classed as ADME, organism-based. To be noted: in vivo.
Series [8] is described as follows: Half life in HIV infected human. Format: ADME.

For `C[C@@]1(F)[C@H](O)[C@@H](CO)O[C@H]1n1ccc(=O)[nH]c1=O`, the half-life in series [1] is 27 h.
Consider `COC(=O)N[C@H](C(=O)N1CCC[C@H]1c1nc(-c2ccc(-c3ccc(-c4c[nH]c([C@@H]5CCCN5C(=O)[C@@H](NC(=O)OC)C(C)C)n4)cc3)cc2)c[nH]1)C(C)C` [DACLATASVIR], for which the half-life in series [1] was in the range of 12 to 15 h. The molecule also gave a bioavailability in series [2] of 67%. Also, the dose excreted in series [3] was 53%.
Molecule `COc1c(-c2ccc3cc(NS(C)(=O)=O)ccc3c2)cc(-n2ccc(=O)[nH]c2=O)cc1C(C)(C)C` [DASABUVIR] had a half-life in series [1] of 5.5 to 6 h. The bioavailability in series [4] turned out to be 70%. Further, the dose excreted in series [5] was 26.2%.
For the molecule `COC(=O)N[C@H](C(=O)N1CCC[C@H]1c1nc(-c2ccc3c(c2)O[C@@H](c2ccccc2)n2c-3cc3cc(-c4c[nH]c([C@@H]5CCCN5C(=O)[C@@H](NC(=O)OC)C(C)C)n4)ccc32)c[nH]1)C(C)C` [ELBASVIR], in series [1], the half-life was 24 h.
Still for that read-out and setting: then `CC(C)(C)[C@@H]1NC(=O)O[C@@H]2CCC[C@H]2OC/C=C/C(F)(F)c2nc3ccccc3nc2O[C@@H]2C[C@@H](C(=O)N[C@]3(C(=O)NS(=O)(=O)C4(C)CC4)C[C@H]3C(F)F)N(C2)C1=O` [GLECAPREVIR], with 6 h; and `C=C[C@@H]1C[C@]1(NC(=O)[C@@H]1C[C@@H]2CN1C(=O)[C@H](C(C)(C)C)NC(=O)O[C@@H]1C[C@H]1CCCCCc1nc3ccc(OC)cc3nc1O2)C(=O)NS(=O)(=O)C1CC1` [GRAZOPREVIR ANHYDROUS], with 31 h.
Molecule `COC(=O)N[C@H](C(=O)N1CC2(CC2)C[C@H]1c1ncc(-c2ccc3c(c2)C(F)(F)c2cc(-c4ccc5nc([C@@H]6[C@H]7CC[C@H](C7)N6C(=O)[C@@H](NC(=O)OC)C(C)C)[nH]c5c4)ccc2-3)[nH]1)C(C)C` [LEDIPASVIR] had a half-life in series [1] of 47 h. In addition, the bioavailability in series [2] stood at 76%.
For the molecule `COC(=O)N[C@H](C(=O)N1CCC[C@H]1C(=O)Nc1ccc([C@@H]2CC[C@@H](c3ccc(NC(=O)[C@@H]4CCCN4C(=O)[C@@H](NC(=O)OC)C(C)C)cc3)N2c2ccc(C(C)(C)C)cc2)cc1)C(C)C` [OMBITASVIR], the half-life in series [1] lay in the range of 21 to 25 h. For the same molecule, in series [4], the bioavailability worked out at 48%. Moreover, the dose excreted in series [6] is 90.2%.
The molecule `Cc1cnc(C(=O)N[C@H]2CCCCC/C=C\[C@@H]3C[C@@]3(C(=O)NS(=O)(=O)C3CC3)NC(=O)[C@@H]3C[C@@H](Oc4nc5ccccc5c5ccccc45)CN3C2=O)cn1` [PARITAPREVIR] showed a half-life in series [1] of 5.5 h. In addition, the bioavailability in series [4] is 53%.
In turn, `COC(=O)N[C@H](C(=O)N1CCC[C@H]1c1nc2cc([C@H]3CC[C@H](c4cc5nc([C@@H]6CCCN6C(=O)[C@@H](NC(=O)OC)[C@@H](C)OC)[nH]c5cc4F)N3c3cc(F)c(N4CCC(c5ccc(F)cc5)CC4)c(F)c3)c(F)cc2[nH]1)[C@@H](C)OC` [PIBRENTASVIR] displayed a half-life in series [1] of 23 to 29 h.
As to `COc1ccc2c(O[C@@H]3C[C@H]4C(=O)N[C@]5(C(=O)NS(=O)(=O)C6CC6)C[C@H]5/C=C\CCCCN(C)C(=O)[C@@H]4C3)cc(-c3nc(C(C)C)cs3)nc2c1C` [SIMEPREVIR], the figures for the half-life in series [1] and in series [8] were 10 to 13 h and 41 h, respectively. This molecule also had a bioavailability in series [7] of 62%.
Regarding `CC(C)OC(=O)[C@H](C)N[P@](=O)(OC[C@H]1O[C@@H](n2ccc(=O)[nH]c2=O)[C@](C)(F)[C@@H]1O)Oc1ccccc1` [SOFOSBUVIR], the half-life in series [1] was 0.4 h. In series [2], this molecule returned a bioavailability of 92%.
`COC[C@H]1C[C@@H](c2ncc(-c3ccc4c(c3)COc3cc5c(ccc6nc([C@@H]7CC[C@H](C)N7C(=O)[C@@H](NC(=O)OC)C(C)C)[nH]c65)cc3-4)[nH]2)N(C(=O)[C@H](NC(=O)OC)c2ccccc2)C1` [VELPATASVIR]: in series [1], the half-life was 15 h.
